Consider 6 molecules from patent US6900187B2, “TRPM-2 antisense therapy using an oligonucleotide having 2′-O-(2-methoxy)ethyl modifications” (The University of British Columbia, priority 1999, dated 2005).

The test system of one series is Shionogi cells. In words: Viability of Shionogi cells treated with chemotherapy agent plus ODN. The format is cell-based, mouse. The conditions noted are these: antisense Bcl-2 ODN added to antisense TRPM-2 ODN and taxol. On the procedure: Shionogi cells maintained in vitro were treated with varying amounts of taxol alone or in combination with 500 nM antisense TRPM-2 ODN (Seq. ID. No. 1) or the mismatch control (Seq. ID No. 2). The cells were treated twice, as described in Example 2, and the percentage of viable cells remaining was determined. As shown, the inclusion of antisense TRPM-2 ODN shifted the dose-response curve to the left, lowering the IC50 by a factor of 5 to 10.
The experiment of Example 3 was repeated, with the addition of antisense Bcl-2 ODN (Seq. ID. No. 13) or a mismatch Bcl-2 ODN (Seq. ID. No. 14) in various combinations with antisense/mismatch TRPM-2 ODN and taxol. […] Thus, the targeting of additional anti-apoptotic agents appears to provide therapeutic benefits.

The subject of another series is human RCC CaKi-2 cells. Description: MTT assay of CaKi-2 cell growth, ODN plus taxol. The format is cell-based. The conditions noted are these: CAKI-2, CaKi-2 cells. On the procedure:
(§1) Immunohistochemical staining was used to characterize TRPM-2 expression in 17 RCC and normal kidney tissues obtained from radical nephrectomy specimens. TRPM-2 expression in human renal cancer cell lines ACHN, CaKi-1 and CaKi-2 was evaluated by Northern and Western blot analyses. Northern blot analysis was used to assess changes in TRPM-2 mRNA expression after antisense TRPM-2 ODN treatment. The effects of combined antisense TRPM-2 ODN and taxol treatment on CaKi-2 cell growth was examined using a MTT assay (Zellweger et al., Neoplasia 3: 360-367 (2001)).

The subject of the next series is TRPM-2. Particulars: cited from earlier work.
The test system of series [1] is TRPM-2 mRNA. Description: Northern blot of TRPM-2 mRNA in Shionogi tumor cells in vitro. The format is cell-based, mouse. Particulars: varying ODN concentrations with lipofectin, treated twice over two days. On the procedure:
The sequence selectivity of the antisense TRPM-2 ODN (Seq. ID. No. 1) was confirmed by comparing expression levels of TRPM-2 mRNA in Shionogi tumor cells maintained in vitro, after treatment with the varying levels of antisense TRPM-2 ODN or a mismatch control (Seq. ID. No. 2). To facilitate uptake of the ODNs into the cells, the ODNs were formulated in a cationic lipid carrier (Lipofectin, (Life Technologies, Inc.)). Cells were treated twice over a period of two days using the following protocol. Cells were preincubated for 20 minutes with 4 μg/ml of lipofectin in serum free OPTI-MEM (Life Technologies, Inc.) and then incubated with the medium containing the selected concentration of ODN and lipofectin for four hours. The medium was then replaced with the standard culture medium.
The amount of TRPM-2 mRNA in the cells was evaluated using Northern blot analysis. […] In contrast, TRPM-2 mRNA levels were not affected by the mismatch ODN (Seq. ID. No. 2) at any of the employed concentrations. Thus, the affect of antisense TRPM-2 ODN is apparently sequence specific.

For series [2], the system named is TRPM-2 mRNA. Description: Northern blot of TRPM-2 expression in CaKi-2 cells. The format is cell-based, human. On the procedure: as §1
Series [3] can be described thus: Side effects in Shionogi tumor mice. The conditions noted are these: 12.5 mg/kg i.p. once daily for 40 days. The format is in vivo, mouse. The procedure: Mice were randomly selected for treatment with murine phosphorothioate antisense TRPM-2 ODN (Seq. ID No. 1) or a mismatch control (Seq. ID No. 2) which is two bases different in sequence from the antisense TRPM-2 ODN. Each experimental group consisted of 7 mice. One day after castration, 12.5 mg/kg of antisense TRPM-2 or mismatch control ODN dissolved in phosphate buffered saline were injected intraperitoneally once daily into each mouse of 40 days. Tumor volume was measured twice weekly, and calculated by the formula length×width×depth×0.5236. Gleave et al., Cancer Res. 52: 1598-1605 (1992). Data points were reported as average tumor volumes±standard deviation.

A further series relates to human TRPM-2 mRNA. Description: TRPM-2 mRNA expression in PC-3 and TRPM-2 transfected LNCaP cells. The format is cell-based. The procedure: The sequences of these ten ODNs are set forth in the attached Sequence Listing as Seq. ID. Nos. 3-12. The ten human antisense ODNs were evaluated using TRPM-2 transfected LNCaP cells and human prostate cancer PC-3 cells for their ability to inhibit expression of TRPM-2 mRNA. […] ID Nos. 4, 5, and 12. Sequence ID No. 5 corresponds to the sequence used by Sensibar, et al. that produced inhibition of TRPM-2 expression in LNCaP cells, and is complementary to the first 21 bases of the TRPM-2 mRNA. […] ID No. 4. Common to all of the effective sequences is an overlap with either the initiation or termination sites of the TRPM-2 mRNA. Thus, it was shown that inhibition of expression of TRPM-2 may be accomplished by the administration of antisense ODNs, particularly antisense ODNs which are complementary to a region of the TRPM-2 mRNA spanning either the translation initiation site or the termination site.
To identify appropriate antisense TRPM-2 ODN sequences for use in human therapy, antisense ODN sequences directed against 10 different sites of the human TRPM-2 gene (FIG. 2, Seq. ID Nos. 3-12) were synthesized and tested for their ability to decrease TRPM-2 gene expression in human prostate cancer PC-3 and transfected LNCaP cells that overexpress TRPM-2 using the same treatment protocol described in Example 2. As shown, sequences 4, 5 and 12 are active for reduction of TRPM-2 expression. These three sequences overlap or are immediately adjacent to the translation initiation or termination sites.

Where two headings read alike, the source gives them in different places.

As for “antisense Bcl-2 ODN: antisense Bcl-2 ODN (Seq. ID. No. 13) (antisense TCTCCCGGCTTGCGCCAT; listed as DNA, chemistry not given here)”, the “cytotoxic effects of taxol in combination with antisense TRPM-2 ODN and antisense Bcl-2 ODN” value in the series on Shionogi cells is on record as “further enhanced the cytotoxic effects of taxol”.

For orientation: IC50 means the concentration at which inhibition is half-maximal. In the case of `CC(=O)O[C@H]1C(=O)[C@@]2(C)[C@H]([C@H](OC(=O)c3ccccc3)[C@]3(O)C[C@H](OC(=O)[C@H](O)[C@@H](NC(=O)c4ccccc4)c4ccccc4)C(C)=C1C3(C)C)[C@]1(OC(C)=O)CO[C@@H]1C[C@@H]2O` [taxol], the values for the concentration for half-maximal inhibition (IC50) with human RCC CaKi-2 cells (with antisense TRPM-2 ODN) and with human RCC CaKi-2 cells (with mismatch control ODN) were 50 nM and 500 nM, respectively.

With “antisense molecule corresponding to the bases 1-21 of the TRPM-2 sequence: antisense molecule of Sensibar et al.; Seq. ID No. 5 corresponds to its sequence (antisense ATTGTCTGAGACCGTCTGGTC; listed as DNA, chemistry not given here)”, the apoptotic cell death result with TRPM-2 (LNCaP cells exposed to TNFα) is reported as “increase in apoptotic cell death”. Further, the “expression of TRPM-2” value in the series on TRPM-2 (transfected LNCaP cells) is on record as “substantial reduction in expression of TRPM-2”.

In the case of “mismatch control ODN: mismatch control two bases different in sequence from the antisense TRPM-2 ODN (DNA GCACAGCAGCAGGATCTTCAT; DNA, backbone and methylation of C not given here)”, the “TRPM-2 mRNA levels in Shionogi cells” value in the series on TRPM-2 mRNA [1] is “not affected”. For the same molecule, the “TRPM-2 expression in CaKi-2 cells” value in the series on TRPM-2 mRNA [2] was “not”. In addition, the side effects entry in series [3] was “No side effects”.

Turning to “Seq. ID No. 5: human antisense phosphorothioate ODN complementary to the first 21 bases of the TRPM-2 mRNA (ATTGTCTGAGACCGTCTGGTC; DNA, all phosphorothioate, methylation of C not given here)”, the “inhibition of TRPM-2 mRNA expression” value is “best results” with human TRPM-2 mRNA and “active” in the series with human TRPM-2 mRNA (listed as 5).

For the molecule “Seq. ID No. 12: human antisense phosphorothioate ODN overlapping or adjacent to translation initiation or termination site of TRPM-2 mRNA (GCTGGGCGGAGTTGGGGGCCT; DNA, all phosphorothioate, methylation of C not given here)”, the “inhibition of TRPM-2 mRNA expression” value in the series on human TRPM-2 mRNA is reported as “best results”; in the series with human TRPM-2 mRNA (listed as 12) it was “active”.
